Data taken from US12060379B2, “Plasmalogen derivatives” (Institute of Rheological Functions of Food, priority 2018, dated 2024).

Experiments:
[1] = tested on: ERK (ERK1/2) phosphorylation in human neuroblastoma derived SH-SY5Y cell; experiment: ERK (ERK1/2) phosphorylation, Western Blotting, SH-SY5Y cells; format: cell-based; conditions: 5 μg/ml, 30 minutes, compared with s-Pls (FIG. 1)
Experimental: By using a neuronal cell line, a study was performed with respect to enhanced phosphorylation activities of ERK (ERK1/2) with compounds according to the present invention.
Neuronal cell lines (mouse neuroblastoma derived NEURO2A cell and human neuroblastoma derived SH-SY5Y cell) were cultivated in DMEM medium containing 10% FBS (fetal bovine serum) for 24 hours. Subsequently, they were cultivated in DMEM medium containing 2% FBS for overnight (18 hours), which were then processed with 5 μg/ml of s-Pls (scallop-derived Pls), Compound REO-002 according to the present invention, and Compound REO-003 according to the present invention for 30 minutes respectively, and cells were subjected to Western Blotting assay. At this stage, the same amount of protein (50 μg of protein extracts) was subjected to an analysis to compare phosphorylation of ERK (ERK ½) (p-ERK).
Neuronal cell lines (human neuroblastoma derived SH-SY5Y cell) were cultivated in DMEM medium containing 10% FBS (fetal bovine serum) for 24 hours. Subsequently, they were cultivated in DMEM medium containing 2% FBS for overnight (18 hours), which were then processed with 1 μg/ml, 5 μg/ml of Compounds REO-004-007 according to the present invention for 30 minutes respectively, and cells were subjected to Western Blotting assay. […]

[2] = tested on: ERK (ERK1/2) phosphorylation in mouse neuroblastoma derived NEURO2A cell; experiment: ERK (ERK1/2) phosphorylation, Western Blotting, NEURO2A cells; format: cell-based; conditions: 5 μg/ml, 30 minutes, compared with s-Pls (FIG. 1)
Experimental: Neuronal cell lines (mouse neuroblastoma derived NEURO2A cell and human neuroblastoma derived SH-SY5Y cell) were cultivated in DMEM medium containing 10% FBS (fetal bovine serum) for 24 hours. […] At this stage, the same amount of protein (50 μg of protein extracts) was subjected to an analysis to compare phosphorylation of ERK (ERK ½) (p-ERK).
Neuronal cell lines (mouse neuroblastoma derived NEURO2A cell) were cultivated in DMEM medium containing 10% FBS (fetal bovine serum) for 24 hours. […] At this stage, the same amount of protein (50 μg of protein extracts) was subjected to an analysis to compare phosphorylation of ERK (ERK %) (p-ERK).

CC/C=C\C/C=C\C/C=C\C/C=C\C/C=C\C/C=C\CCC(=O)O[C@@H](COCCCCCOc1ccccc1)COP(=O)(O)OCCN [REO-003]
enhanced phosphorylation activities of ERK (ERK1/2) (p-ERK) [1]: exhibit enhanced phosphorylation activities of ERK (ERK½) equivalent to s-Pls
enhanced phosphorylation activities of ERK (ERK1/2) (p-ERK) [2]: exhibit enhanced phosphorylation activities of ERK (ERK½) equivalent to s-Pls
